3 molecules from patent US20240252654A1, “IMPROVED SMALL MOLECULES” (University of Dundee, priority 2020, published 2024) can be followed below.

Series [1] concerns MV4; 11 cells. Description: Correlative cell viability in cMyc-HiBiT MV4;11 cells (CellTiter-Glo). It is filed as cell-based. The following applies: 1 nM, after 6 h. The method, then: Monitoring cMyc Loss and Cell Viability in MV4; 11 Cells. CRISPR cMyc-HiBiT MV4; 11 cells (Promega) were plated at a density of 5×10^4 cells per well in solid, white 96-well tissue culture plates (Corning Costar #3917). Following an overnight incubation, they were treated with 1-100 nM concentration of the indicated compounds and at the plotted time points, cMyc levels were determined using luminescent measurement with NanoGlo HiBiT lytic reagent (Promega). Replicate plate of all compound treatments were prepared and at identical timepoints as the protein level measurements, cell viability was measured using Cell-Titer Glo (Promega). Plates were shaken on an orbital shaker for 10-20 min before reading luminescence on a GloMax Discover Microplate Reader (Promega).

In series [2] the test system is 22Rv1 cells. In words: PARP cleavage immunoblot in 22Rv1 cells. The series is classed as cell-based. Particulars: 22Rv1, 10 nM, 24 h (MT1, MZ1 up to 48 h). The method, then:
Next, the inventors assessed the functional effects of SIM1 on the viability of 22Rv1 cancer cells. […] Cells died of apoptosis as indicated by prevented cleavage of PARP upon co-treatment with QVD-OPh, a pan-caspase inhibitor, and not of necroptosis, as shown by co-treatment with Necrostatin-1 (FIG. 3d and FIG. 10a).
Degradation assays. MV4; 11 cells were seeded at 1×10^6 cells/mL of 10 cm dishes 12-24 h before treatment. 22Rv1 and HEK293 cells were seeded at 2.5-6×10^5 cells/well of 6 well plates 12-24 h before treatment. Cells were treated with test compounds with and without inhibitors as indicated or an equivalent volume of DMSO and lysed at the stated time point. For lysis, cells were washed twice in ice cold PBS (Invitrogen) then lysed in 250 μL/plate for MV4; 11 cells or 80 μL/well for 22Rv1 and HEK293 cells of ice cold lysis buffer containing 50 mM Tris hydrochloride pH 7.4, 150 mM sodium chloride, 1 mM EDTA pH 7.4, 1% v/v Triton X-100, 1×Halt™ Protease Inhibitor Cocktail (ThermoFisher). […] Protein concentration was determined by BCA assay (Pierce) and the absorbance at 562 nm measured by spectrophotometry (NanoDrop ND1000). […] Bands were detected using a ChemiDoc MP imaging system (BioRad) and quantified (Image Studio Lite, version 5.2) with normalisation to β-actin and the DMSO control per time point. […]
On the technique in general: In western blotting, separated proteins are transferred to a membrane and probed.

Series [3] addresses T1, HiBiT-BRD4 (Homo sapiens, UniProt O60885).
T1 construct: endogenously HiBiT tag the N-terminal genomic loci of BRD2, BRD3, or BRD4; endogenous in cells; host or cells: HEK293 stably expressing LgBiT, CRISPR/Cas9 edited
Description: NanoBRET target engagement, permeabilized and live cells. The series is classed as cell-based. The following applies: for IC80: live cell format, unit given with each value, read-out: IC80 for tracer displacement; for binding to endogenous HiBiT-BRD4: permeabilized cells. The method, then:
Cells were treated with a fluorescent BET tracer, then incubated with the indicated compounds at various concentrations to measure competitive displacement.
(§1) NanoBRET Target Engagement and Residence Time. For target engagement experiments in live and permeabilized cells, CRISPR HiBiT-BRD4 HEK293 cells stably expressing LgBiT were plated into white 96-well tissue culture plates at a density of 2×10^4 cells/well. Cells were equilibrated for 1 h with energy transfer probes and the indicated test compound prior to NanoBRET measurements. NanoBRET tracers were prepared at a working concentration of 20× in tracer dilution buffer (12.5 mM HEPES, 31.25% PEG-400, pH 7.5). NanoBRET BRD Tracer-02 was added to cells at a final concentration of 0.5 μM. To measure NanoBRET in live cells, NanoBRET NanoGlo Substrate and Extracellular NanoLuc Inhibitor (Promega) were added according to the manufacturer's recommended protocol, and filtered luminescence was measured on a GloMax Discover luminometer equipped with 450 nm BP filter (donor) and 600 nm LP filter (acceptor) using 0.3 s integration time. To measure NanoBRET in permeabilized cells, digitonin was added to the cells to a final concentration of 50 μg/mL and Extracellular NIuc inhibitor was omitted during the detection step. […] Cells were incubated in 15 mL conical tubes with caps loosened in a tissue culture incubator for 1 h. Following incubation, cells were spun at 300×g for 5 min, washed once with Opti-MEM, spun a second time at 300×g for 5 min, then resuspended with fresh Opti-MEM before plating at 2×10^4 cells/well. NanoBRET BRD Tracer-02 was added at a final concentration of 0.5 μM cells and kinetic NanoBRET measurements were collected on a GloMax Discover. NanoBRET ratios were expressed in milliBRET units and calculated according to the equation in the NanoBRET Ubiquitination, Ternary Complex and Biosensor Experiments section.
In general terms: In BRET a luciferase serves as donor, and the signal depends on an acceptor being close.

The target of series [4] is T1, HiBiT-BRD4. In words: NanoBRET live cell residence time. The series is classed as cell-based. Particulars: live cells. The method, then: as §1
The test system of series [5] is VHL and full-length BRD4 WT, N140F, or N433F. In words: Kinetic NanoBRET ternary complex assay, NanoLuc-BRD4 with HaloTag-VHL. It is filed as cell-based, human. The method, then: NanoBRET Ubiquitination, Ternary Complex, and Biosensor Experiments. For endogenous live cell BET:Ubiquitin and BET:VHL assays, CRISPR HiBiT-BRD2, HiBiT-BRD3, and HiBiT-BRD4 HEK293 cells stably expressing LgBiT were transfected with 2 μg of HaloTag-UBB or HaloTag-VHL vectors in 6-well plates using FuGENE HD (Promega). For full transient NanoBRET experiments with NanoLuc-BRD4 WT, N433F, or N140F mutants, HEK293 cells (8×10^5) were co-transfected with 0.02 μg NanoLuc-BRD4 and 2 μg of HaloTag-VHL vectors. For transient NanoBRET experiments with the BRD4 NL-BD1-BD2-HT biosensor containing either the WT tandem BD1-BD2 domain (AA 44-460) or containing the N433F mutation, HEK293 cells (8×10^5) were transfected with 0.02 μg biosensor plasmid and 2 μg carrier DNA. […] NanoBRET NanoGlo (Promega) substrate was added and BRET was measured two hours post-compound treatment using a GloMax Discover Microplate Reader (Promega). Dual filtered luminescence was collected with a 460/80 nm bandpass filter and a 610 nm long pass filter (acceptor, HaloTag NanoBRET ligand) using an integration time of 0.5 s. For all NanoBRET experiments, background subtracted NanoBRET ratios expressed in milliBRET units were calculated from the equation: […]

For series [6], the system named is BRD2 and BRD4. In words: Dose-response degradation immunoblot in RCC4-HA-VHL cells. It is filed as cell-based. The following applies: 6 h, 500 nM to 6.4 pM. The method, then:
Compound MN674 was designed and synthesised as another analogue of SIM1. […] MN674 was tested in the mammalian cell line RCC4-HA-VHL in a dose-response degradation assay. The assay involved immunoblots (see FIG. 21 for raw western blot data and FIG. 22 for dose-response curves) displaying 6 hour treatments of eight 5-fold serial dilutions from 500 nM to 6.4 pM of each compound. […] RCC4-HA-VHL cells were exposed to eight 5-fold serial dilutions (from 500 nM to […]) of heterotrivalent Bet-Bet-VHL PROTACs SIM1 and MN674 for 6 hour treatments, before lysates were harvested and analysed on immunoblots (FIG. 21). A Bio-Rad MP imaging system was used for fluorescence detection of BRD2 (IRDye 800CW), BRD4_long (IRDye 800CW), BRD4_short (IRDye 800CW) and house-keeping gene Tubulin (Rhodamine). The intensities of the bands were determined using ImageLab software and all BET protein intensities normalised to Tubulin in order to convert them into a percentage band intensity rationalised to the 0.1% DMSO-only control. These intensities were then plotted in GraphPad Prism for Dose-Response [Inhibition] Variable slope (four parameter) analyses to generate the curves for BRD2 (FIG. 22a) and BRD4 (FIG. 22b), to determine the DC50 values presented in Table 3 (FIG. 20). The experiment is representative of n=2 i.e. biological duplicate.

Turning to `Cc1sc2c(c1C)C(c1ccc(Cl)cc1)=N[C@@H](CC(=O)NCCOCCOCCOCCOCCOCCOCCOCCNC(=O)C[C@@H]1N=C(c3ccc(Cl)cc3)c3c(sc(C)c3C)-n3c(C)nnc31)c1nnc(C)n1-2` [MT1], the measurable cellular death entry in series [1] is “not”. In series [2], the “PARP cleavage / cell death” value is reported as “did not cause observable PARP cleavage”. Further, in series [3], the IC80 stood at 100 nM; the “binding to endogenous HiBiT-BRD4” value was “near-identical binding affinities and IC50 values”. The “residence time on BRD4” value in series [4] is recorded as “longer residence time”. Moreover, the ternary complex formation entry in series [5] is on record as “not”.
Take `Cc1ncsc1-c1ccc(CNC(=O)[C@@H]2C[C@@H](O)CN2C(=O)[C@@H](NC(=O)COCC(C)(COCCOCCNC(=O)C[C@@H]2N=C(c3ccc(Cl)cc3)c3c(sc(C)c3C)-n3c(C)nnc32)COCCOCCNC(=O)C[C@@H]2N=C(c3ccc(Cl)cc3)c3c(sc(C)c3C)-n3c(C)nnc32)C(C)(C)C)cc1` [MN674, N,N′-(8-((2-(((S)-1-((2S,4R)-4-hydroxy-2-((4-(4-methylthiazol-5-yl)benzyl)carbamoyl)pyrrolidin-1-yl)-3,3-dimethyl-1-oxobutan-2-yl)amino)-2-oxoethoxy)methyl)-8-methyl-3,6,10,13-tetraoxapentadecane-1,15-diyl)bis(2-((S)-4-(4-chlorophenyl)-2,3,9-trimethyl-6H-thieno[3,2-f][1,2,4]triazolo[4,3-a][1,4]diazepin-6-yl)acetamide)]: the “degradation potency relative to SIM1” value in series [6] is “comparable in degradation potencies to SIM1”.
Regarding `Cc1ncsc1-c1ccc(CNC(=O)[C@@H]2C[C@H](O)CN2C(=O)[C@@H](NC(=O)COCC(C)(COCCOCCOCCNC(=O)C[C@@H]2N=C(c3ccc(Cl)cc3)c3c(sc(C)c3C)-n3c(C)nnc32)COCCOCCOCCNC(=O)C[C@@H]2N=C(c3ccc(Cl)cc3)c3c(sc(C)c3C)-n3c(C)nnc32)C(C)(C)C)cc1` [cis-SIM1, N,N′-(11-((2-(((S)-1-((2S,4S)-4-hydroxy-2-((4-(4-methylthiazol-5-yl)benzyl)carbamoyl)pyrrolidin-1-yl)-3,3-dimethyl-1-oxobutan-2-yl)amino)-2-oxoethoxy)methyl)-11-methyl-3,6,9,13,16,19-hexaoxahenicosane-1,21-diyl)bis(2-((S)-4-(4-chlorophenyl)-2,3,9-trimethyl-6H-thieno[3,2-f][1,2,4]triazolo[4,3-a][1,4]diazepin-6-yl)acetamide)], the measurable cellular death entry in series [1] was “not”. Besides, the cell permeability entry in series [3] (inferred from live versus permeabilized cells) is “readily cell-permeable”. In addition, in series [3], the IC80 stood at 100 nM; the “binding to endogenous HiBiT-BRD4” value is “near-identical binding affinities and IC50 values”. In addition, the “shift of binding affinity to BRD4 compared to MT1” value in series [3] (live cells) came to 10 ×. Besides, the “residence time on BRD4” value in series [4] was “identical displacement kinetics as MT1”. Besides, the ternary complex formation result in series [5] was “not”.

The IC80 is the concentration needed for an effect of 80%.
